How the values were obtained:
Assay type in all cases: in vivo
Italian sweet basil [1] = experiment: Chilling damage of Italian sweet basil following spray treatment (Example 3)
Description: (§1) A laboratory study was conducted at Long Grove, Ill. Italian sweet basil seeds were sown in Pro-Mix® BX potting soil and plants were grown at room temperature under cool-white fluorescent lights under a 16:8 (light:dark) photoperiod. At 22 days post-sowing, plants were subjected to sprays with a portable Preval® paint sprayer. At 48 hours post-spraying, plants were moved to a CONVIRON® growth chamber and subjected to a temperature of 4° C. for 72 hours under a 12:12 (light:dark) photoperiod. Upon removal from the cold chamber, plants were returned to the laboratory and placed again under the cool white fluorescent lamps until they were visually scored for chilling damage at 24 hours and 72 hours post-chilling. Each treatment was replicated seven times.

Corn = experiment: Stomatal conductance of corn following spray; conditions: for % of Control Conductance 4 days: 4 days post-spray; for % of Control Conductance 3 days: 3 days post-spray
Description: A greenhouse study was conducted at Long Grove, Ill. Seeds of a commercial hybrid variety were sown in Pro-Mix® BX in three-liter pots. Greenhouses were kept at 25±3° C. under a 16:8 hour (light:dark) photoperiod, with illumination at canopy level of ˜250 μmoles m-2 s-1. Corn was typically fertigated with Peters 21-5-20+ micronutrients, calcium ammonium nitrate and magnesium sulfate. Typical growth rates for corn under these conditions ranged from 4 to 5 centimeters per day.
In this study, spray applications were made to corn at stage V4. These applications were made in a track sprayer outfitted with a 4001E Teejet® nozzle (Teejet is available from and a registered trademark of Spraying Systems Co., Glendale Heights, Ill., USA) and applied at 40 pounds per square inch and at 30 gallons/acre of spray solution. Following spray applications, plants were returned to the greenhouse.
At 3 and 4-days post spray application, stomatal conductance of the 4th true leaf was measured using a Licor Model 6400 XT photosynthesis meter (Licor, Lincoln, Neb.) used according to the manufacturer's directions. For ease of analysis, stomatal conductance values are expressed as a percent of control in Table 5 below.

[2] = tested on: Cucumber (Cucumis sativa var. Straight Eight); experiment: Post-chilling damage in cucumber following spray treatment
Description: A laboratory study was conducted at Long Grove, Ill. Cucumber (Cucumis sativa var. Straight Eight) seeds were sown in Pro-Mix® BX potting soil (Pro-Mix is a registered trademark of and available from Premier Horticulture Ltd.) and plants were grown in a CONVIRON® growth chamber at 25° C. under a 16:8 (light:dark) photoperiod. At 15 days post-sowing, plants were subjected to sprays with a portable Preval® paint sprayer. All spray solutions were made up in deionized water and a non-ionic surfactant was added to all spray solutions at 0.05% (v/v). At 48 hours post-spraying, plants were moved to a CONVIRON® growth chamber and subjected to a temperature of 4° C. for 48 hours under a 12:12 (light:dark) photoperiod. Upon removal from the cold chamber, plants were returned to a CONVIRON® growth chamber set at 25° C. under a 16:8 (light:dark) photoperiod. The plants were visually scored for chilling damage at 72 hours post-chilling. Each treatment was replicated seven times. […] Using the following formula, Applicant was able to determine that the response to the GB:(S)-ABA ratio was synergistic, in which a synergy factor is calculated by the […]: % Cexp=A+B−(AB/100), where % Cexp is the expected efficacy and “in which A and B are the increase in growth (or resistance to stress) levels given by the single [plant growth regulators]. If the ratio between the experimentally observed efficacy of the mixture Cobs and the expected efficacy of the mixture is greater than 1, synergistic interactions are present in the mixture” (Gisi, Synergistic Interaction of Fungicides in Mixtures, The American Phytopathological Society, 86:11, 1273-1279, 1996). To be conservative Applicant has set the minimum synergy factor to 1.1 throughout the Examples. Applicant determined synergy to be present at the following ratios of GB:(S)-ABA: 1:1 (synergy factor 3.74); 3.3:1 (synergy factor 2.68) and 10:1 (synergy factor 1.24).

Italian sweet basil [3] = experiment: Chilling damage of Italian sweet basil following spray treatment (Example 4)
Description: as §1, with “the cool-white” for “the cool white”, “and 120” for “and 72”

[4] = tested on: Italian large leaf basil (Ocimum basilicum) seedlings; experiment: Chilling tolerance assay in basil seedlings (24-well plates)
Description: To determine the capacity of glycine betaine (“GB”) to confer thermo-tolerance, both singly and in combination with (S)-abscisic acid (“(S)-ABA”), chilling (i.e. cold) tolerance assays were performed using Italian large leaf basil (Ocimum basilicum) seedlings. Basil seeds were sterilized in an ethanol solution containing 0.16% Maxim® XL fungicide (Maxim is a registered trademark of and available from Syngenta Corporation). The sterilized seeds were germinated on ½×Murashige and Skoog Basal Salt Media, supplemented with 1× Gamborg's Vitamins and 0.6% Phytagar, and dispensed into 24-well plates. […]
After five days, concentrated solutions of GB and/or (S)-ABA were added as an overlay in 0.4% Phytagar. […] The seedlings were subjected to chilling stress for six days, after which time they were transferred back to the ambient temperature chamber, and scored after a six-day recovery period.
Individual wells contained indicated amounts of GB and/or (S)-ABA. […] GB was evaluated singly at concentrations of 0, 3,000, 10,000, 30,000, and 100,000 milligrams per liter (“mg/l”.) To test whether there was a synergistic interaction between GB and (S)-ABA, glycine betaine was added to the media at concentrations of 0, 1,000, 3,000, 10,000, and 30,000 mg/l, whereas (S)-ABA was held at a concentration of 3 mg/l. […]

[5] = single agent spray 300 mg/l, 4° C. 72 h
[6] = single agent spray 300 mg/l, 72 hours post-chilling (4° C. 48 h)

CC1=CC(=O)CC(C)(C)[C@@]1(O)/C=C/C(C)=C/C(=O)O [(S)-ABA, (S)-abscisic acid]
% Leaf Area Damaged 72 h post-chilling (Italian sweet basil [1]; single agent spray 300 mg/l): 27% | % Leaf Area Damaged 24 h post-chilling (Italian sweet basil [1]; [5]): 12% | % Leaf Area Damaged 24 h post-chilling (Italian sweet basil [1]; single agent spray 1,000 mg/l): 6% | % Leaf Area Damaged 72 h post-chilling (Italian sweet basil [1]; single agent spray 1,000 mg/l): 14% | % of Control Conductance 4 days (Corn; single agent spray 100 mg/l): 91.8 % of Control | % of Control Conductance 3 days (Corn; single agent spray 100 mg/l, corn stage V4, 4th true leaf): 81.3 % of Control | % of Control Conductance 3 days (Corn; single agent spray 300 mg/l): 73.6 % of Control | % of Control Conductance 4 days (Corn; single agent spray 300 mg/l): 88.7 % of Control | % of Control Conductance 3 days (Corn; single agent spray 1,000 mg/l): 76.5 % of Control | % of Control Conductance 4 days (Corn; single agent spray 1,000 mg/l): 95.9 % of Control | % of Control Conductance 3 days (Corn; single agent spray 3,000 mg/l): 55.3 % of Control | % of Control Conductance 4 days (Corn; single agent spray 3,000 mg/l): 77.5 % of Control | % Leaf Area Damaged [2, 6]: 52.9% | % Leaf Area Damaged 120 h post-chilling (Italian sweet basil [3]; single agent spray 300 mg/l): 41.00% | % Leaf Area Damaged 24 h post-chilling (Italian sweet basil [3]; [5]): 23.00% | % Leaf Area Damaged 24 h post-chilling (Italian sweet basil [3]; single agent spray 1,000 mg/l): 11.67% | % Leaf Area Damaged 120 h post-chilling (Italian sweet basil [3]; single agent spray 1,000 mg/l): 21.67% | Chilling injury ([4]; 20 ppm (S)-ABA alone (positive control)): “++” denotes little to no chilling injury; equivalent to 20 ppm (S)-ABA alone

C[N+](C)(C)CC(=O)[O-] [GB, Glycine betaine]
% Leaf Area Damaged 24 h post-chilling (Italian sweet basil [1]; single agent spray 3,000 mg/l): 67% | % Leaf Area Damaged 72 h post-chilling (Italian sweet basil [1]; single agent spray 3,000 mg/l): 79% | % Leaf Area Damaged 24 h post-chilling (Italian sweet basil [1]; single agent spray 20,000 mg/l): 45% | % Leaf Area Damaged 72 h post-chilling (Italian sweet basil [1]; single agent spray 20,000 mg/l): 65% | % of Control Conductance 3 days (Corn; single agent spray 1,000 mg/l): 86.2 % of Control | % of Control Conductance 4 days (Corn; single agent spray 1,000 mg/l): 97.9 % of Control | % Leaf Area Damaged [2, 6]: 84.3% | % Leaf Area Damaged ([2]; single agent spray 1,000 mg/l, 72 hours post-chilling): 82.1% | % Leaf Area Damaged ([2]; single agent spray 3,000 mg/l, 72 hours post-chilling): 46.4% | % Leaf Area Damaged 24 h post-chilling (Italian sweet basil [3]; single agent spray 10,000 mg/l): 39.17% | % Leaf Area Damaged 120 h post-chilling (Italian sweet basil [3]; single agent spray 10,000 mg/l): 56.67% | % Leaf Area Damaged 24 h post-chilling (Italian sweet basil [3]; single agent spray 30,000 mg/l): 40.00% | % Leaf Area Damaged 120 h post-chilling (Italian sweet basil [3]; single agent spray 30,000 mg/l): 50.00% | Protection against chilling injury ([4]; 30,000 mg/l GB alone): equivalent protection as ˜20 mg/l (S)-ABA

From patent US10098347B2, “Methods of improving growth and stress tolerance in plants” (Valent BioSciences LLC, priority 2016, dated 2018)
